According to patent US20250388541A1, “HETEROARYL COMPOUNDS FOR THE TREATMENT OF PAIN” (VERTEX PHARMACEUTICALS INCORPORATED, priority 2022, published 2025):

Each compound was assayed against human NaV 1.8 (Homo sapiens, UniProt Q9Y5Y9) (assay: E-VIPR assay detecting and measuring NaV inhibition properties). Conditions: HEK cells expressing a truncated form of human NaV 1.8; electrical stimulation, membrane potential FRET dyes; read-out: measured IC50 value in the E-VIPR Assay.
Format: cell-based
Excerpt: E-VIPR Assay Detecting and Measuring NaV Inhibition Properties
Sodium ion channels are voltage-dependent proteins that can be activated by inducing membrane voltage changes by applying electric fields. […] The instrument comprises a microtiter plate handler, an optical system for exciting the coumarin dye while simultaneously recording the coumarin and oxonol emissions, a waveform generator, a current- or voltage-controlled amplifier, and parallel electrode pairs that are inserted into assay plate wells. Under integrated computer control, this instrument passes user-programmed electrical stimulus protocols to cells within the wells of the microtiter plate.
16-20 hours prior to running the assay on E-VIPR, HEK cells expressing a truncated form of human NaV 1.8 with full channel activity were seeded into microtiter 384-well plates, pre-coated with matrigel, at a density of 25,000 cells per well. 2.5-5% KIR2.1 BacMam virus was added to the final cell suspension before seeding into cell plates. […] Cells were expanded in 5-layer CellSTACK culture chambers or cell culture flasks with vented caps, with 90-95% humidity and 5% CO2.
• Bath 1 Buffer containing 0.5% 3-cyclodextrin (made fresh prior to each use, Sigma #C4767), […] CC2-DMPE and 2 μM DiSBAC6(3). The solution was made by adding 10% Pluronic F127 stock equal to combined volumes of CC2-DMPE and DiSBAC6(3).
The compound plate was backfilled with 45 μL per well of Compound Loading Buffer resulting in a 240-fold dilution of compound following a 1:1 transfer of compound into the cell plate (see Step 6). […] This assay dilution protocol was adjusted to enable a higher dose range to be tested in the presence of HS or if the final assay volume was altered. • 2) Hexyl Dye Solution was prepared. • 3) Cell plates were prepared. On the day of the assay, the media was aspirated, and the cells were washed three times with 80 μL of Bath-1 buffer, maintaining 25 μL residual volume in each well. • 4) 25 μL per well of Hexyl Dye Solution was dispensed into the cell plates. The cells were incubated for 20 minutes at room temperature or ambient conditions in darkness. • 5) 45 μL per well of Compound Loading Buffer was dispensed into compound plates. • 6) The cell plates were washed three times with 80 μL per well of Bath-1 Buffer, leaving 25 μL of residual volume. Then 25 µL per well from compound plate was transferred to each cell plate. The mixture was incubated for 30 minutes at room temperature/ambient conditions. • 7) The cell plate containing compound was read on E-VIPR using the current-controlled amplifier to deliver stimulation wave pulses using a symmetrical biphasic waveform. […] A pre-stimulus recording was performed for each well for 0.5 seconds to obtain the un-stimulated intensities baseline. The stimulatory waveform was followed by 0.5 seconds of post-stimulation recording to examine the relaxation to the resting state. All E-VIPR responses were measured at 200 Hz acquisition rate.
The response as a function of time was reported as the ratios obtained using the following formula: […]
The data were normalized by calculating the initial (Ri) and final (Rf) ratios. These were the average ratio values during part or all of the pre-stimulation period and during sample points during the stimulation period. The fluorescence ratio (Rf/Ri) was then calculated and reported as a function of time.
Control responses were obtained by performing assays in the presence of the positive control, and in the absence of pharmacological agents (DMSO vehicle negative control). Responses to the negative (N) and positive (P) controls were calculated as above. The compound antagonist % activity A was then defined as:
[formula] • where X is the maximum amplitude of the ratio response or number of action potential peaks, at the beginning of the pulse train in the presence of test compound.

Chain of human NaV 1.8 (Q9Y5Y9 126-399 limits assumed): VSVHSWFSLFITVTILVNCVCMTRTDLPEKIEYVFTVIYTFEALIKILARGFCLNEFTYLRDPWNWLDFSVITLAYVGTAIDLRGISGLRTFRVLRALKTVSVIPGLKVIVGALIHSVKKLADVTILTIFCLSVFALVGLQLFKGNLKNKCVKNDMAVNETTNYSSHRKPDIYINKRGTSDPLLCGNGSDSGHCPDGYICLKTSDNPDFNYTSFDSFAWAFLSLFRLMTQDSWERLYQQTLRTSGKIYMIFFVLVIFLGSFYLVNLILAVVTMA
Chain of human NaV 1.8 (Q9Y5Y9 660-890 limits assumed): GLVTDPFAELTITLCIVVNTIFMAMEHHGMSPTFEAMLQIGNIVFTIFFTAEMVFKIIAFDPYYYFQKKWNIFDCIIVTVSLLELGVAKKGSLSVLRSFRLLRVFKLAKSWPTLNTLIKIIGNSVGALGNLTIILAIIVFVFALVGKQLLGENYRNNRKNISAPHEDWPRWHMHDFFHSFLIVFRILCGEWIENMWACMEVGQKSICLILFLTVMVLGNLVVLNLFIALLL
Chain of human NaV 1.8 (Q9Y5Y9 1148-1722 limits assumed): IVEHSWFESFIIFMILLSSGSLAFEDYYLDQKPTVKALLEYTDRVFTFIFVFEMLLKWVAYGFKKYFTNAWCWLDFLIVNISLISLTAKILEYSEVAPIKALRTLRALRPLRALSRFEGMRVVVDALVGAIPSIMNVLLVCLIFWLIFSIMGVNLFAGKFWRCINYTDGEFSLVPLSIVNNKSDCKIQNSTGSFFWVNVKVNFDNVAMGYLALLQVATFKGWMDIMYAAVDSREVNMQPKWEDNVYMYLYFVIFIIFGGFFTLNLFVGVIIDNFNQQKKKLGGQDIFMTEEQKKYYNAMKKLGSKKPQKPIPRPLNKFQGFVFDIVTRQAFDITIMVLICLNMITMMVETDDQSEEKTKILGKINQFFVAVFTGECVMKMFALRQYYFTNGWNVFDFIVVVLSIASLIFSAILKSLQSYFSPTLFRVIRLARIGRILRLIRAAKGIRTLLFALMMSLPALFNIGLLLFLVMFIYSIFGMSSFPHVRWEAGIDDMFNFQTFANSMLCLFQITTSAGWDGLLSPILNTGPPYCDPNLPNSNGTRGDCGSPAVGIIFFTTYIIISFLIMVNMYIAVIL

| SMILES | IC50 |
| --- | --- |
| Cc1cc(=O)c(C)c(-c2ccc(C(C)(C)C)cc2C)[nH]1 [Compound 75, 2-(4-tert-butyl-2-methyl-phenyl)-3,6-dimethyl-1H-pyridin-4-one] | 500 to 2000 nM |
| Cc1cc(=O)cc(-c2ccc(C(C)C)cc2C(C)C)[nH]1 [Compound 43, 2-(2,4-diisopropylphenyl)-6-methyl-1H-pyridin-4-one] | 2000 to 5000 nM |
| Cc1cc(=O)c(C)c(-c2ccc(C3(C(F)(F)F)CC3)cc2)[nH]1 [Compound 78, 3,6-dimethyl-2-[4-[1-(trifluoromethyl)cyclopropyl]phenyl]-1H-pyridin-4-one] | 2000 to 5000 nM |
| Cc1cc(C(C)(C)C)ccc1-c1cc(=O)c(C2=CCN(C)CC2)c(C)[nH]1 [Compound 174, 6-(4-tert-butyl-2-methyl-phenyl)-2-methyl-3-(1-methyl-3,6-dihydro-2H-pyridin-4-yl)-1H-pyridin-4-one] | 2000 to 5000 nM |
| Cc1cc(=O)cc(-c2ccc(C3(C(F)(F)F)CC3)cc2C)[nH]1 [Compound 96, 2-methyl-6-[2-methyl-4-[1-(trifluoromethyl)cyclopropyl]phenyl]-1H-pyridin-4-one] | 500 to 2000 nM |
| CCOC(=O)c1c(-c2c(C)cc(C(C)(C)C)cc2C)[nH]c(C)c(C)c1=O [Compound 98, ethyl 2-(4-tert-butyl-2,6-dimethyl-phenyl)-5,6-dimethyl-4-oxo-1H-pyridine-3-carboxylate] | 500 to 2000 nM |
| Cc1[nH]c(-c2ccc(C3(C(F)(F)F)CC3)cc2)cc(=O)c1C [Compound 82, 2,3-dimethyl-6-[4-[1-(trifluoromethyl)cyclopropyl]phenyl]-1H-pyridin-4-one] | 500 to 2000 nM |
| COc1nc2ccccc2cc1-c1cc(=O)c(C)c(C)[nH]1 [Compound 95, 6-(2-methoxy-3-quinolyl)-2,3-dimethyl-1H-pyridin-4-one] | 2000 to 5000 nM |
| Cc1cc(C(C)(C)C)ccc1-c1cc(=O)cc(N(C)C)[nH]1 [Compound 100, 2-(4-tert-butyl-2-methyl-phenyl)-6-(dimethylamino)-1H-pyridin-4-one] | 500 to 2000 nM |
| Cc1[nH]c(-c2ccc(C(C)(C)C)cc2)cc(=O)c1C [Compound 79, 6-(4-tert-butylphenyl)-2,3-dimethyl-1H-pyridin-4-one] | 500 to 2000 nM |
| Cc1cc(=O)cc(-c2c(C)cc(C(C)(C)C)cc2C)[nH]1 [Compound 3, 2-(4-tert-butyl-2,6-dimethyl-phenyl)-6-methyl-1H-pyridin-4-one] | 500 to 2000 nM |
| Cc1nc(-c2ccc(C(C)(C)C)cc2C)cc(=O)[nH]1 [Compound 83, 4-(4-tert-butyl-2-methyl-phenyl)-2-methyl-1H-pyrimidin-6-one] | 2000 to 5000 nM |
| Cc1cc(C(C)(C)C)ccc1-c1cc(=O)c(C2=CCNCC2)c(C)[nH]1 [Compound 205, 6-(4-tert-butyl-2-methyl-phenyl)-2-methyl-3-(1,2,3,6-tetrahydropyridin-4-yl)-1H-pyridin-4-one] | 500 to 2000 nM |
| Cc1cc(=O)c(C)c(-c2ccc(C(C)(C)C)cc2)[nH]1 [Compound 77, 2-(4-tert-butylphenyl)-3,6-dimethyl-1H-pyridin-4-one] | 500 to 2000 nM |

Continued, values first:

| IC50 | SMILES |
| --- | --- |
| 500 to 2000 nM | COc1c(-c2ccc(C(C)(C)C)cc2C)[nH]c(C)cc1=O [Compound 107, 2-(4-tert-butyl-2-methyl-phenyl)-3-methoxy-6-methyl-1H-pyridin-4-one] |
| 500 to 2000 nM | Cc1cc(C(C)(C)C)ccc1-c1cc(=O)c(CN)c(C)[nH]1 [Compound 154, 3-(aminomethyl)-6-(4-tert-butyl-2-methyl-phenyl)-2-methyl-1H-pyridin-4-one] |
| 500 to 2000 nM | CC(=O)Nc1c(C)[nH]c(-c2ccc(C(C)(C)C)cc2C)cc1=O [Compound 157, N-[6-(4-tert-butyl-2-methyl-phenyl)-2-methyl-4-oxo-1H-pyridin-3-yl]acetamide] |
| 2000 to 5000 nM | Cc1cc(C(C)(C)C)ccc1-c1cc(=O)c(NC(=O)[C@H](C)N)c(C)[nH]1 [Compound 156, (2S)-2-amino-N-[6-(4-tert-butyl-2-methyl-phenyl)-2-methyl-4-oxo-1H-pyridin-3-yl]propanamide] |
| 500 to 2000 nM | Cc1cc(C(C)(C)C)ccc1-c1cc(=O)c(C2CCN(C)CC2)c(C)[nH]1 [Compound 204, 6-(4-tert-butyl-2-methyl-phenyl)-2-methyl-3-(1-methyl-4-piperidyl)-1H-pyridin-4-one] |
| 2000 to 5000 nM | COCn1ccnc1-c1c(C)[nH]c(-c2cc(Cl)c(C(C)(C)C)cc2C)cc1=O [Compound 201, 6-(4-tert-butyl-5-chloro-2-methyl-phenyl)-3-[1-(methoxymethyl)imidazol-2-yl]-2-methyl-1H-pyridin-4-one] |
| 500 to 2000 nM | Cc1cc(C(C)(C)C)c(Cl)cc1-c1cc(=O)c(-c2cn(C)c(C)n2)c(C)[nH]1 [Compound 197, 6-(4-tert-butyl-5-chloro-2-methyl-phenyl)-3-(1,2-dimethylimidazol-4-yl)-2-methyl-1H-pyridin-4-one] |
| 500 to 2000 nM | Cc1cc(C(C)(C)C)ccc1-c1cc(=O)c(NC(=O)[C@@H](C)N)c(C)[nH]1 [Compound 155, (2R)-2-amino-N-[6-(4-tert-butyl-2-methyl-phenyl)-2-methyl-4-oxo-1H-pyridin-3-yl]propanamide] |
| 500 to 2000 nM | CCOc1c(-c2ccc(C(C)(C)C)cc2C)[nH]c(C)cc1=O [Compound 106, 2-(4-tert-butyl-2-methyl-phenyl)-3-ethoxy-6-methyl-1H-pyridin-4-one] |
| 500 to 2000 nM | Cc1cc(C(C)(C)C)c(Cl)cc1-c1cc(=O)c(-c2ncc[nH]2)c(C)[nH]1 [Compound 212, 6-(4-tert-butyl-5-chloro-2-methyl-phenyl)-3-(1H-imidazol-2-yl)-2-methyl-1H-pyridin-4-one] |
| 500 to 2000 nM | Cc1cc(C(C)(C)C)ccc1-c1cc(=O)c(-c2cccnc2C#N)c(C)[nH]1 [Compound 172, 3-[6-(4-tert-butyl-2-methyl-phenyl)-2-methyl-4-oxo-1H-pyridin-3-yl]pyridine-2-carbonitrile] |
| 2000 to 5000 nM | COc1cc(=O)cc(-c2ccc(C(C)(C)C)cc2C)[nH]1 [Compound 104, 2-(4-tert-butyl-2-methyl-phenyl)-6-methoxy-1H-pyridin-4-one] |
| 500 to 2000 nM | Cc1cc(C(C)(C)C)c(Cl)cc1-c1cc(=O)c(S(=N)(=O)C(C)C)c(C)[nH]1 (stereo not drawn) [Compound 145, 6-(4-tert-butyl-5-chloro-2-methyl-phenyl)-3-(isopropylsulfonimidoyl)-2-methyl-1H-pyridin-4-one] |
